Laboratory results as given in the supplement of paper PMC11061612.

What was measured:
Assay in all cases: Bliss excess, mean over the matrix (fraction); higher = more synergy
[1] = tested on: COLO-824 (Breast Carcinoma)
Summary of the method: (§1)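 Bliss excess equals the observed combination effect minus the expected value EA + EB − EA·EB, where EA and EB are the effects of each agent alone. Combination Emax is the second-highest inhibition within the matrix. Inhibition was scaled from CellTiter-Glo 2.0 luminescence, with 0 set by vehicle wells and 1 by blank wells, after 72 hours of two-drug dosing of cells plated in 1536-well plates.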

[2] = tested on: SISO (Cervical Carcinoma)
Summary of the method: as §1

[3] = tested on: CAS-1 (Glioblastoma)
Summary of the method: as §1

[4] = tested on: ARH-77 (Non-Cancerous)
Summary of the method: as §1

[5] = tested on: A498 (Kidney Carcinoma)
Summary of the method: as §1

[6] = tested on: BICR22 (Oral Cavity Carcinoma)
Summary of the method: as §1

[7] = tested on: NCI-H1650 (Lung Adenocarcinoma)
Summary of the method: as §1

[8] = tested on: NCI-H2066 (Squamous Cell Lung Carcinoma)
Summary of the method: as §1

[9] = tested on: NCI-H1581 (Non-Small Cell Lung Carcinoma)
Summary of the method: as §1

[10] = tested on: COR-L311 (Small Cell Lung Carcinoma)
Summary of the method: as §1

[11] = tested on: CCK-81 (Colorectal Carcinoma)
Summary of the method: as §1

[12] = tested on: CAL-29 (Bladder Carcinoma)
Summary of the method: as §1

[13] = tested on: SK-MES-1 (Squamous Cell Lung Carcinoma)
Summary of the method: as §1

[14] = tested on: GI-ME-N (Neuroblastoma)
Summary of the method: as §1

[15] = tested on: SK-MG-1 (Low Grade Glioma)
Summary of the method: as §1

[16] = tested on: Hs-445 (Non-Cancerous)
Summary of the method: as §1

[17] = tested on: NCI-H1666 (Lung Adenocarcinoma)
Summary of the method: as §1

[18] = tested on: CAPAN-2 (Pancreatic Carcinoma)
Summary of the method: as §1

[19] = tested on: ONS-76 (Other Solid Carcinomas)
Summary of the method: as §1

[20] = tested on: TT (Thyroid Gland Carcinoma)
Summary of the method: as §1

## Cc1c2c(nn1C)CSCc1cc(n(C)n1)CSc1cc(c3ccccc3c1)OCCCc1c(C(=O)O)n(C)c3c-2c(Cl)ccc13 [AZD5991] + CCN(CCO)CCCOc1ccc2c(Nc3cc(CC(=O)Nc4cccc(F)c4)[nH]n3)ncnc2c1 [AZD2811] (first compound max 1 µM, 7x7, partner max 1 µM)
[1]
  Bliss excess: -0.0156
[2]
  Bliss excess: 0.108
[3]
  Bliss excess: 0.061
[4]
  Bliss excess: -0.0146
[5]
  Bliss excess: 0.0054
[6]
  Bliss excess: 0.0418
[7]
  Bliss excess: 0.0357
[8]
  Bliss excess: 0.0154
[9]
  Bliss excess: 0.108
[10]
  Bliss excess: -0.0057
[11]
  Bliss excess: 0.0227
[12]
  Bliss excess: 0.072
[13]
  Bliss excess: 0.0098
[14]
  Bliss excess: 0.0116
[15]
  Bliss excess: 0.0619
[16]
  Bliss excess: 0.0869
[17]
  Bliss excess: -0.0133
[18]
  Bliss excess: -0.0133
[19]
  Bliss excess: 0.0619
[20]
  Bliss excess: -0.0735

## NC1(C(=O)N[C@@H](CCO)c2ccc(Cl)cc2)CCN(c2ncnc3[nH]ccc23)CC1 [Capivasertib] + CC(=O)c1c(C)c2cnc(Nc3ccc(N4CCNCC4)cn3)nc2n(C2CCCC2)c1=O [Palbociclib] (first compound max 10 µM, 7x7, partner max 10 µM)
[1]
  Bliss excess: -0.0495
[2]
  Bliss excess: 0.0057
[3]
  Bliss excess: -0.044
[4]
  Bliss excess: -0.0211
[5]
  Bliss excess: -0.0294
[6]
  Bliss excess: -0.0329
[7]
  Bliss excess: -0.0223
[8]
  Bliss excess: -0.033
[9]
  Bliss excess: 0.0213
[10]
  Bliss excess: -0.0489
[11]
  Bliss excess: -0.0025
[12]
  Bliss excess: 0.0198
[13]
  Bliss excess: 0.0137
[14]
  Bliss excess: -0.0823
[15]
  Bliss excess: -0.0303
[16]
  Bliss excess: -0.0616
[17]
  Bliss excess: 0.0086
[18]
  Bliss excess: -0.0164
[19]
  Bliss excess: 0.027
[20]
  Bliss excess: -0.001

## COc1cccc(OCCCN)c1-c1cc(Nc2cnc(C#N)cn2)n[nH]1 [Prexasertib] + C=CCn1c(=O)c2cnc(Nc3ccc(N4CCN(C)CC4)cc3)nc2n1-c1cccc(C(C)(C)O)n1 [AZD1775] (first compound max 1 µM, partner max 1 µM)
[1]
  Bliss excess: 0.0432
[2]
  Bliss excess: 0.0814
[3]
  Bliss excess: -0.0363
[4]
  Bliss excess: 0.0493
[5]
  Bliss excess: -0.0716
[6]
  Bliss excess: 0.0175
[7]
  Bliss excess: 0.0005
[8]
  Bliss excess: -0.0337
[9]
  Bliss excess: 0.155
[10]
  Bliss excess: 0.0559
[11]
  Bliss excess: 0.0523
[12]
  Bliss excess: -0.0079
[13]
  Bliss excess: -0.0425
[14]
  Bliss excess: 0.0161
[15]
  Bliss excess: 0.0712
[16]
  Bliss excess: -0.0366
[17]
  Bliss excess: -0.0629
[18]
  Bliss excess: -0.0231
[19]
  Bliss excess: -0.0299
[20]
  Bliss excess: -0.103

## COc1cccc(OCCCN)c1-c1cc(Nc2cnc(C#N)cn2)n[nH]1 [Prexasertib] + CN(C)CCCOc1ccc(-c2ccc3ncc4c(c3c2)n(C2CCOCC2)c(=O)n4C)cn1 [AZD0156] (first compound max 1 µM, 7x7, partner max 1 µM)
[1]
  Bliss excess: -0.0047
[2]
  Bliss excess: -0.0056
[3]
  Bliss excess: -0.0336
[4]
  Bliss excess: 0.0018
[5]
  Bliss excess: 0.034
[6]
  Bliss excess: -0.0429
[7]
  Bliss excess: -0.0451
[8]
  Bliss excess: -0.0379
[9]
  Bliss excess: 0.0112
[10]
  Bliss excess: -0.0532
[11]
  Bliss excess: -0.0133
[12]
  Bliss excess: -0.0479
[13]
  Bliss excess: -0.0471
[14]
  Bliss excess: 0.0737
[15]
  Bliss excess: -0.0321
[16]
  Bliss excess: -0.0286
[17]
  Bliss excess: -0.0291
[18]
  Bliss excess: 0.0147
[19]
  Bliss excess: -0.0148
[20]
  Bliss excess: -0.004

## Cc1c2c(nn1C)CSCc1cc(n(C)n1)CSc1cc(c3ccccc3c1)OCCCc1c(C(=O)O)n(C)c3c-2c(Cl)ccc13 [AZD5991] + Cn1cnc2c(F)c(Nc3ccc(Br)cc3Cl)c(C(=O)NOCCO)cc21 [Selumetinib] (first compound max 1 µM, 7x7, partner max 3 µM)
[1]
  Bliss excess: -0.0049
[2]
  Bliss excess: -0.0134
[3]
  Bliss excess: -0.0036
[4]
  Bliss excess: -0.0069
[5]
  Bliss excess: 0.0133
[6]
  Bliss excess: 0.127
[7]
  Bliss excess: -0.0083
[8]
  Bliss excess: 0.0459
[9]
  Bliss excess: 0.0803
[10]
  Bliss excess: -0.0212
[11]
  Bliss excess: 0.009
[12]
  Bliss excess: 0.0436
[13]
  Bliss excess: 0.0132
[14]
  Bliss excess: -0.06
[15]
  Bliss excess: 0.0044
[16]
  Bliss excess: 0.0106
[17]
  Bliss excess: 0.0499
[18]
  Bliss excess: 0.0129
[19]
  Bliss excess: 0.0319
[20]
  Bliss excess: -0.0526

## CC(=O)c1c(C)c2cnc(Nc3ccc(N4CCNCC4)cn3)nc2n(C2CCCC2)c1=O [Palbociclib] + CN(CC[C@H](CSC1=CC=CC=C1)NC2=C(C=C(C=C2)S(=O)(=O)NC(=O)C3=CC=C(C=C3)N4CCC(CC4)[C@H](C5=CC=CC=C5C6=CC=C(C=C6)Cl)O)S(=O)(=O)C(F)(F)F)CCO [AZD4320] (first compound max 10 µM, 7x7, partner max 1 µM)
[1]
  Bliss excess: 0.0326
[2]
  Bliss excess: -0.0669
[3]
  Bliss excess: -0.143
[4]
  Bliss excess: -0.0498
[5]
  Bliss excess: -0.134
[7]
  Bliss excess: -0.0805
[10]
  Bliss excess: 0.0047
[12]
  Bliss excess: -0.0702
[13]
  Bliss excess: -0.0549
[14]
  Bliss excess: -0.0771
[15]
  Bliss excess: -0.078
[16]
  Bliss excess: 0.0465

## COc1nnc2ccc(N3CCC(c4ccc(OCCN5CCN(C)C(=O)[C@H]5C)cc4)CC3)nn12 [AZD5153] + CN(CC[C@H](CSC1=CC=CC=C1)NC2=C(C=C(C=C2)S(=O)(=O)NC(=O)C3=CC=C(C=C3)N4CCC(CC4)[C@H](C5=CC=CC=C5C6=CC=C(C=C6)Cl)O)S(=O)(=O)C(F)(F)F)CCO [AZD4320] (first compound max 1 µM, 7x7, partner max 1 µM)
[1]
  Bliss excess: 0.057
[2]
  Bliss excess: -0.0052
[3]
  Bliss excess: 0.0455
[4]
  Bliss excess: -0.019
[5]
  Bliss excess: 0.0103
[7]
  Bliss excess: -0.0124
[10]
  Bliss excess: 0.0506
[12]
  Bliss excess: -0.0125
[13]
  Bliss excess: 0.0704
[14]
  Bliss excess: 0.0077
[15]
  Bliss excess: 0.0462
[16]
  Bliss excess: 0.085

## CCc1c2c(nc3ccc(O)cc13)-c1cc3c(c(=O)n1C2)COC(=O)[C@]3(O)CC [SN-38] + O=C(c1cc(Cc2n[nH]c(=O)c3ccccc23)ccc1F)N1CCN(C(=O)C2CC2)CC1 [Olaparib] (first compound max 0.3 µM, 7x7, partner max 10 µM)
[2]
  Bliss excess: 0.0546
[3]
  Bliss excess: -0.0274
[4]
  Bliss excess: 0.0446
[5]
  Bliss excess: 0.036
[6]
  Bliss excess: 0.0626
[7]
  Bliss excess: 0.0138
[8]
  Bliss excess: -0.0477
[9]
  Bliss excess: 0.0009
[11]
  Bliss excess: 0.0414
[14]
  Bliss excess: 0.0672
[15]
  Bliss excess: 0.0512
[16]
  Bliss excess: 0.0811
[17]
  Bliss excess: 0.0889
[18]
  Bliss excess: -0.0382
[19]
  Bliss excess: 0.05
[20]
  Bliss excess: 0.0545
